One assay concerns the target Factor XIa (Homo sapiens (Human), UniProt P03951). The assay can be described thus: Factor XIa inhibition assay (FLINT) utilizing a fluorophore-quencher pair peptide substrate. It is filed as biochemical. As to conditions: 30 min preincubation, kinetic reads over 30 min, 5Fam-KLTRAETV-K5Tamra substrate 15 μM; read-out: FXIa Kin Inh IC50. An outline of the steps:
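FXIa ([…]) preincubated 30 min with compound (11-point 3-fold dilution, top 100 nM, 2% DMSO), then 15 μM quenched FXI Arg146-based peptide added; Tris pH 7.5, CaCl2, BSA, CHAPS. Fluorescence 485/520 nm read kinetically every 5 min over 30 min at RT; IC50 by 4-parameter fit.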

In another assay the target is human plasma kallikrein (Homo sapiens (Human), UniProt P03952). The assay can be described thus: Kallikrein inhibition assay (FLINT) utilizing a quenched AMC peptide substrate. It is filed as biochemical. As to conditions: 30 min preincubation, kinetic reads over 30 min, Z-Gly-Pro-Arg-AMC substrate 50 μM; read-out: Kallikrein Kin Inh IC50. An outline of the steps: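 Enzyme (2 nM final) pre-incubated 30 min at room temperature with compound (11-point, 3-fold, top 1 μM, 2% DMSO), then 50 μM Z-Gly-Pro-Arg-AMC added in Tris pH 7.5 buffer. Kinetic fluorescence 340/440 nm every 5 min over 30 min; IC50 from 4-parameter logistic fit.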
Sequence of human plasma kallikrein (P03952 391-638): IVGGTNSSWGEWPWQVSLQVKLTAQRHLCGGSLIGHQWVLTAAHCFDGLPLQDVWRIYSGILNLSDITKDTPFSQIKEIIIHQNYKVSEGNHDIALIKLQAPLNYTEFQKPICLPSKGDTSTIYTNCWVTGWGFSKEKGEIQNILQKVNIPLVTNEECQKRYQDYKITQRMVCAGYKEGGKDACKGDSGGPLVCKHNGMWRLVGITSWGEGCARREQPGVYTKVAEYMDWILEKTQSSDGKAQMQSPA
Sequence of human plasma kallikrein (P03952 20-390 partner): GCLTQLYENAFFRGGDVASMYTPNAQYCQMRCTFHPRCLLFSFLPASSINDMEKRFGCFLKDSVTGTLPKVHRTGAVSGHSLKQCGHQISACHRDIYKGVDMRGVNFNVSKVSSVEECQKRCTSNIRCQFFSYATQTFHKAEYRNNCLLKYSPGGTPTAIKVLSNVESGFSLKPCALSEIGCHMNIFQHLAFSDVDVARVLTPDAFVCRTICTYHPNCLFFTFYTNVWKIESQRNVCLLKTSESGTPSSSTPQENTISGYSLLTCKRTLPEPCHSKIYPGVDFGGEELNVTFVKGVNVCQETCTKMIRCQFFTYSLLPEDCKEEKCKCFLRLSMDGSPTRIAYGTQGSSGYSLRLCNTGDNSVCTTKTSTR

Sequence of Factor XIa (P03951 388-625): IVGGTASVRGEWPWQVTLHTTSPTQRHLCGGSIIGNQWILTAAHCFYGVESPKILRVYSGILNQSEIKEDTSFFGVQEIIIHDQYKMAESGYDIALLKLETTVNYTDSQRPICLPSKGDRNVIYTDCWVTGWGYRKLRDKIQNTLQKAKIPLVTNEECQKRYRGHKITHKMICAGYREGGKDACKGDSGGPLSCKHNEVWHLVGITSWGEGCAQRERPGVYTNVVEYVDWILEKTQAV
Sequence of Factor XIa (P03951 19-387 partner): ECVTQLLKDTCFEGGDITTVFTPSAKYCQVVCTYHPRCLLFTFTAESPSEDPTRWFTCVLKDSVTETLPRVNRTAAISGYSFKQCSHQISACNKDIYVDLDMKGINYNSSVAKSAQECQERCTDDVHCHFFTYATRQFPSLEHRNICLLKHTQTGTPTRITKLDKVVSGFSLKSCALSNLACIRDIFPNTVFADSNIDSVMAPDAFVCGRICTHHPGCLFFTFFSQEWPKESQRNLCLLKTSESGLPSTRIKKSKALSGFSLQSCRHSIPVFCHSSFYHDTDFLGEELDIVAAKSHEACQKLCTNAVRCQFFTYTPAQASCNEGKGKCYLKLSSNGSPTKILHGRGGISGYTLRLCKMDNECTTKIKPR

A word on the IC50: it is the point on the concentration scale where inhibition reaches its midpoint. Turning to `O=C1C=C(c2c(-n3cnnn3)ccc(Cl)c2F)C[C@H]2CC[C@@H](c3ncc(-c4ccnc(CO)c4F)[nH]3)N12` (single isomer, unassigned) [Example 194, (3*S,8a*R)-7-(3-chloro-2-fluoro-6-(1H-tetrazol-1-yl)phenyl)-3-(4-(3-fluoro-2-(hydroxymethyl-d2)pyridin-4-yl)-1H-imidazol-2-yl)-2,3,8,8a-tetrahydroindolizin-5(1H)-one], the 50% inhibitory concentration (IC50) came to 2.2 nM at Factor XIa and 16.8 nM on human plasma kallikrein.
For `O=C(O)c1sc(-c2cnc([C@@H]3CC[C@@H]4CC(c5c(-n6cc(C(F)(F)F)nn6)ccc(Cl)c5F)=CC(=O)N43)[nH]2)cc1F` (single isomer, unassigned) [Example 195, 5-(2-((3*S,8aR)-7-(3-chloro-2-fluoro-6-(4-(trifluoromethyl)-1H-1,2,3-triazol-1-yl)phenyl)-5-oxo-1,2,3,5,8,8a-hexahydroindolizin-3-yl)-1H-imidazol-yl)-3-fluorothiophene-2-carboxylic acid], the 50% inhibitory concentration (IC50) at Factor XIa came to 0.5 nM; at human plasma kallikrein, 22.1 nM.
In the case of `NC(=O)c1cc(-c2cnc([C@@H]3CC[C@@H]4CC(c5c(-n6cnnn6)ccc(Cl)c5F)=CC(=O)N43)[nH]2)ccn1` (single isomer, unassigned) [Example 206], the half-maximal inhibitory concentration (IC50) on Factor XIa was 10.6 nM; on human plasma kallikrein, 9.5 nM.
Take `NC(=O)c1ncc(-c2c[nH]c([C@@H]3CC[C@H]4CC(c5c(-n6cc(C(F)(F)F)nn6)ccc(Cl)c5F)=CC(=O)N43)n2)s1` (single isomer, unassigned) [Example 209]: the results for the 50% inhibitory concentration (IC50) at Factor XIa and at human plasma kallikrein were 46.5 nM and 37.9 nM, respectively.
`NC(=O)c1ncc(-c2c[nH]c([C@@H]3CC[C@@H]4CC(c5c(-n6cc(C(F)(F)F)nn6)ccc(Cl)c5F)=CC(=O)N43)n2)s1` (single isomer, unassigned) [Example 210]: the half-maximal inhibitory concentration (IC50) at Factor XIa stood at 9.3 nM; at human plasma kallikrein it was 20.7 nM.
Turning to `NC(=O)c1ccc(-c2cnc([C@@H]3CC[C@@H]4CC(c5c(-n6cc(C(F)(F)F)nn6)ccc(Cl)c5F)=CC(=O)N43)[nH]2)cn1` (single isomer, unassigned) [Example 212], the concentration for half-maximal inhibition (IC50) is 20.5 nM on Factor XIa and 90.9 nM on human plasma kallikrein.
Consider `NC(=O)c1ccc(-c2cnc([C@@H]3CC[C@H]4CC(c5c(-n6cc(C(F)(F)F)nn6)ccc(Cl)c5F)=CC(=O)N43)[nH]2)cn1` (single isomer, unassigned) [Example 213], for which the IC50 is 39.4 nM on Factor XIa and 197 nM on human plasma kallikrein.
Consider `NC(=O)c1ccc(-c2c[nH]c([C@@H]3CC[C@H]4CC(c5c(-n6cc(C(F)(F)F)nn6)ccc(Cl)c5F)=CC(=O)N43)n2)s1` (single isomer, unassigned) [Example 221], for which the IC50 came out at 2.3 nM on Factor XIa and 7.7 nM at human plasma kallikrein.
For `O=C1C=C(c2c(-n3cnnn3)ccc(Cl)c2F)C[C@H]2CC[C@@H](c3ncc(-c4c[nH]nc4Cl)[nH]3)N12` (single isomer, unassigned) [Example 224], the IC50 at Factor XIa turned out to be 0.5 nM; at human plasma kallikrein, 8 nM.
For `NC(=O)c1ccc(-c2cnc([C@@H]3CC[C@@H]4CC(c5c(-n6cnnn6)ccc(Cl)c5F)=CC(=O)N43)[nH]2)cn1` (single isomer, unassigned) [Example 225], the IC50 is 2.6 nM on Factor XIa and 16.6 nM at human plasma kallikrein.
Consider `NC(=O)c1ccc(-c2cnc([C@H]3CC[C@@H]4CC(c5c(-n6cnnn6)ccc(Cl)c5F)=CC(=O)N43)[nH]2)cn1` (single isomer, unassigned) [Example 226], for which the IC50 was determined as 10.2 nM at Factor XIa and 38.4 nM on human plasma kallikrein.
For `O=C1C=C(c2c(-n3cnnn3)ccc(Cl)c2F)C[C@H]2CC[C@@H](c3ncc(-c4ccc(CO)nc4F)[nH]3)N12` (single isomer, unassigned) [Example 235], the figures for the IC50 at Factor XIa and on human plasma kallikrein were 4.7 nM and 21.1 nM, respectively.

The values are drawn from patent US20230295157A1, “3-(1H-IMIDAZOL-2-YL)-2,3,8,8A-TETRAHYDROINDOLIZIN-5(1H)-ONE DERIVATIVES USEFUL AS FACTOR XIA INHIBITORS” (JANSSEN PHARMACEUTICA NV, priority 2020, published 2023).
